The values that follow come from patent publication US9862690B2, “Treatment of pulmonary and other conditions” (University of Pittsburgh—of the Commonwealth System of …, priority 2013, dated 2018).

For one data set, the system named is alveolar macrophages. Kind of data set: Gene expression in alveolar macrophages isolated from BAL fluid of treated mice (real-time PCR). The format is in vivo. The conditions noted are these: mice given LPS then 25 mg/kg nebulized. The procedure:
Induction of ALI by intratracheal injection of LPS (50 μg) was followed 30 min later by nebulization of PB141 (25 mg/kg) or vehicle (saline) and delivery to cage air via a micropump nebulizer. After another 5.5 h BAL fluid was obtained. Alveolar macrophages were isolated from the BAL fluid and plated in DMEM+10% FBS. After 1 h, RNA was isolated and expression of the indicated genes was determined using real-time PCR; results were normalized to values for the housekeeping genes glyceraldehyde-3-phosphate dehydrogenase (GAPDH) and […]. Data are representative of one of two independent experiments with n=6-8 mice per group; **P<0.01; ***P<0.001.
For additional in vitro studies, after the treatment described above alveolar macrophages were isolated from the BAL fluid and plated in DMEM+10% FBS. After 1 h, RNA was isolated and expression of the different genes was determined using real-time PCR; results were normalized to values for the housekeeping genes glyceraldehyde-3-phosphate dehydrogenase (GAPDH) and […]. […] In other experiments, PMNs were isolated from peripheral blood of endotoxin-treated mice by hetastarch exchange transfusion. PMN adhesion was assessed with the Cytoselect Leukocyte-Endothelium Adhesion Assay kit (CBA-210; Cell Biolabs) and transendothelial PMN migration was determined with the Cytoselect Leukocyte Transmigration Assay kit (CBA-212; Cell Biolabs).
Background: Real-time PCR tracks product formation cycle by cycle.

Data set [1] relates to human lung fibroblasts (IMR-90; fibroblasts of normal or UIP patients). Kind of data set: TGF-β-treated lung fibroblast proliferation and myofibroblast differentiation. The data set is classed as cell-based. As to conditions: pretreatment 0.1 to 1 μM, then TGF-β 24 h. The protocol: IMR-90 cells were cultured in Dulbecco's modified Eagle's medium (DMEM) containing 10% heat-inactivated fetal bovine serum, penicillin, and streptomycin (100 IU/ml). Monolayer cultures were deprived of serum for 24 h, and treated with different concentrations of PB141 for different time periods as indicated. Cell numbers were then counted at 24, 48, and 72 h. Data are representative of one of two independent experiments; n=3.
IMR-90 cells were cultured in Dulbecco's modified Eagle's medium (DMEM) containing 10% heat-inactivated fetal bovine serum, penicillin, and streptomycin (100 IU/ml). Monolayer cultures were deprived of serum for 24 h, pre-treated with 0.5 μM PB141 or with vehicle (saline) for 1 h, and then exposed to 2 ng/ml TGF-β for 24 h. (A) Western blot analysis for α-smooth muscle actin. (B) Quantitative values for each condition. ***P<0.001 vs Veh. (C) Immunofluorescence microscopy for α-SMA following treatment. Blots and images are representative of two independent experiments.
Additional in vitro experiments were performed using normal human fetal lung fibroblasts (IMR-90; Institute for Medical Research, Camden, N.J.) or fibroblasts grown from mechanically dissociated surgical lung biopsy of histologically normal or usual interstitial pneumonia (UIP) patients. […]

The subject of the next data set is BEAS-2B cells. The format is cell-based. The procedure:
To evaluate cell viability, apoptosis, and cytotoxicity, the Apo Tox-Glo Triplex assay was used according to the manufacturer's instructions (Promega, Madison, Wis.). Briefly, the BEAS-2B cells were plated at 2×10^4 cells/well in 100 μl medium in an opaque walled, clear-bottomed, 96-well plate. After 24 hr culture, they were treated for a further indicated time with different concentrations of PB141 or PB157. At the end of the culture period, 20 μl viability/cytotoxicity reagent was added to each well, mixed by orbital shaking (300 r.p.m. for 30 s) and incubated for 30 min at 37° C. Fluorescence was then measured with excitation at 400 nm and emission at 505 nm to assess cell viability, and 485 nm excitation and 520 nm emission to assess cytotoxicity; both were quantified as relative fluorescence units (RFU). Then, 100 μl Caspase-Glo 3/7 reagent was added to each well, mixed by orbital shaking (300 r.p.m. for 30 s) and incubated for 30 min at room temperature. Luminescence was measured to assess caspase activation as a marker of apoptosis and quantified as relative luminescence units. Results for PB141 and PB157 were similar.

The subject of data set [2] is chronic hypoxia-induced pulmonary hypertension in mice. The experiment in a line: Chronic hypoxia-induced pulmonary hypertension model. The data set is classed as in vivo. As to conditions: 25 mg/kg nebulized during last 10 days of 3 weeks hypoxia. The procedure: CH-induced pulmonary hypertension was produced in mice by exposing them to chronic hypoxia (CH; FIO2 10%) or room air (N; control) for 3 weeks. During the last 10 days of exposure, PB141 (25 mg/kg) or vehicle (saline) was nebulized and delivered to cage air via a micropump nebulizer. Twenty-four hours following the last nebulization mice were anesthetized and the right internal jugular vein of each mouse was surgically exposed and cannulated with a pressure transducer that was advanced to record right ventricular pressure, then advanced further to measure pulmonary arterial pressure: (top left) mean pulmonary arterial pressure; (top right) right ventricular systolic pressure (RVSP); (bottom left) […]; (bottom right) right ventricular hypertrophy. Data are representative of one of two independent experiments with n=4-6 mice per group.
CH-induced pulmonary hypertension was produced in mice by exposing them to CH (FIO2 10%) or room air for 3 weeks. During the last 10 days of exposure, PB141 (25 mg/kg) or vehicle (saline) was nebulized and delivered to cage air via a micropump nebulizer. Twenty-four hours following the last nebulization lung samples were obtained. Graphs show medial wall thickness of a-SMA-positive acinar blood vessels and percent of non-muscularized, partially muscularized, and fully muscularized small vessels. Data are representative of one of two independent experiments with n=4-6 mice per group.
Pulmonary hypertension was induced in mice by exposing them to chronic hypoxia (FiO2 10%) for 3 weeks. Control mice breathed room air during the last 10 days of exposure, PB141 (25 mg/kg) or vehicle (saline) was nebulized into the cage air for 30 min via a nebulizer.
Twenty-four hours following the last PB141 administration, mice were anesthetized, and the right internal jugular vein of each mouse was surgically exposed and cannulated with a pressure transducer that was advanced to record right ventricular systolic pressure (RVSP), which is elevated in pulmonary hypertension. […] The heart was then excised and the right ventricle was separated from the left ventricle (including the septum). Each ventricle was weighted separately.
Twenty-four hours following the last PB141 administration, lung samples were obtained. Immunostaining for α-SMA, a key marker in pulmonary hypertension, was performed in paraffin sections of lung and the sections were examined microscopically. […] All these measures of vascular wall remodeling in small pulmonary vessels, the pathophysiology underlying pulmonary hypertension, were reduced by PB141 treatment (FIG. 20).

Take `CC(=O)N[C@@H](CSC(CC(=O)CC(SC[C@H](NC(C)=O)C(=O)O)c1cnccn1)c1cnccn1)C(=O)O` (some centres unmarked) [PB141]: in the data set with alveolar macrophages, the “Transcription of antioxidant genes in alveolar macrophages” value is recorded as “increased” and the “Transcription of inflammatory genes in alveolar macrophages” value is listed as “decreased”. For the same molecule, the “Proliferation of human lung fibroblasts” value in data set [1] was “inhibited”. For the same molecule, the “Differentiation to myofibroblasts (α-SMA)” value in data set [1] (including UIP patient fibroblasts) is “inhibited”. Further, the Cytotoxicity entry in the data set on BEAS-2B cells was “without exhibiting cytotoxicity”. The “Apoptosis (caspase 3/7 activation)” value in the data set on BEAS-2B cells (different concentrations, data not shown) is recorded as “induced apoptosis”. For the same molecule, in data set [2], the “Increase in ratio of right ventricular weight to left ventricle plus septum” value was “significantly reduced”; the “Increase in right ventricular systolic pressure (RVSP)” value is recorded as “significantly smaller”; the “Measures of vascular wall remodeling (α-SMA-positive vessels, muscularization, median wall thickness)” value was “reduced”; the Pulmonary arterial pressure result is “significantly smaller”. The Pulmonary vascular resistance entry in data set [2] is listed as “significantly smaller”.
